{"source": "paper PMC10108821", "about": "“Three tyrosine kinase inhibitors cause cardiotoxicity by inducing endoplasmic reticulum stress and inflammation in cardiomyocytes” (BMC Medicine, 2023)", "key": {"Cor.4U hiPSC-CMs": {"system": "Cor.4U hiPSC-CMs", "assay": "ATP level (CellTiter-Glo) in hiPSC-CMs", "assay_type": "cell-based, human"}, "NRCMs [1]": {"system": "NRCMs", "assay": "Seahorse assay: oxygen consumption and extracellular acidification", "assay_type": "cell-based, rat", "settings": "24 h; fixed doses: 10 µM, crizotinib and ponatinib 3.16 µM"}, "NRCMs [2]": {"system": "NRCMs", "assay": "ROS by H2DCFDA staining and flow cytometry", "settings": "3 h; 10 µM afatinib, 10 µM sorafenib, 5.62 µM ponatinib", "protocol": "For ROS assessment, cells were washed with PBS once and stained with 10μM H2DCFHDA (MCE) in phenol red-free DMEM (Procell) in a humid incubator with 5% CO2 at 37°C for 30 minutes. Cells were washed with PBS twice and dissociated to single cells before flow cytometry analysis at the FITC channel. For lipid peroxidation measurement, cells were washed with PBS once and stained with 2μM C11-bodipy^581/591 (Cayman) in phenol red-free DMEM (Procell) in a humid incubator with 5% CO2 at 37°C for 30 minutes. Cells were washed with PBS twice and dissociated to single cells before flow cytometry analysis at both the FITC and the PE channels. Fluorescence of the oxidized C11-bodipy were acquired through the FITC channel (Ex/Em=488/520nm) and that of the non-oxidized C11-bodipy through the PE channel (Ex/Em=555/624nm)."}, "TNNT2 protein in NRCMs": {"system": "TNNT2 protein in NRCMs", "assay": "TNNT2 immunofluorescence", "assay_type": "cell-based, rat", "settings": "24 h; 10 µM afatinib, 10 µM sorafenib, 5.62 µM ponatinib", "protocol": "Cells cultured in multi-well plates were fixed with 4% paraformaldehyde (Sigma) for 30 minutes at room temperature, washed 3 times with PBS, and permeabilized with 0.2% Tritonx100 (Applygen) for 15 minutes. Then, cells were blocked with 5% normal goat serum (Bioss) for 1-hr at room temperature and probed with primary antibodies against TNNT2 (proteintech) or NF-κB (CST) overnight at 4°C. Secondary antibodies (Jackson Immuno Research Laboratories, Inc.) and 0.4ug/mL DAPI (Coolaber) were applied at room temperature for 1 hour. Immunofluorescence pictures were taken by ImageXpress Micro Confocal-AWES (Molecular Devices)."}}, "data": [{"smiles": "CNC(=O)c1cc(Oc2ccc(NC(=O)Nc3ccc(Cl)c(C(F)(F)F)c3)cc2)ccn1", "note": "[sorafenib]", "values": [{"measurement": "effect on ATP levels", "setting": "Cor.4U hiPSC-CMs; 0.32 to 10 µM, day 1 to day 5", "value": "slight increase in the ATP level at day 1, but decrease at day 5"}, {"measurement": "EC50 (ATP) compared with maximal plasma concentration (Cmax)", "setting": "Cor.4U hiPSC-CMs; day 5", "value": "lower than or similar to their maximal plasma concentrations (Cmax)"}, {"measurement": "basal oxygen consumption rate (OCR)", "setting": "NRCMs [1]", "value": "significant inhibition"}, {"measurement": "maximal, spare and non-mitochondrial oxygen consumption", "setting": "NRCMs [1]", "value": "inhibited maximal, spare, and non-mitochondrial oxygen consumption significantly"}, {"measurement": "increase in percent of ROS-high cells", "setting": "NRCMs [2]", "value": 16.2, "unit": "%"}, {"measurement": "TNNT2 protein (cardiac Troponin T2)", "setting": "TNNT2 protein in NRCMs", "value": "had the most effect"}]}]}
